Data taken from patent publication US9914739B2, “6H-furo[2,3-E]indole compounds for the treatment of hepatitis C” (BRISTOL-MYERS SQUIBB COMPANY, priority 2014, dated 2018).

Tested on: genotype 1b (Con-1) HCV replicon
Test: HCV replicon luciferase assay, genotype 1b
Format: cell-based
Settings: Hepatitis C virus, Huh-7, 72 h, Huh-7 cells with genotype 1b HCV replicon, Renilla luciferase, 3 days incubation
Experimental: The cell lines used to evaluate compounds consist of a human hepatocyte derived cell line (Huh-7) that constitutively expresses a genotype 1b (Con-1) HCV replicon or a genotype 1b (Con-1) HCV replicon with an asparagine replacing the cysteine at amino acid 316, or a genotype 2a (JFH-1) replicon, containing a Renilla luciferase reporter gene. These cells were maintained in Dulbecco's modified Eagle medium (DMEM) containing 10% FBS, 100 U/mL penicillin/streptomycin and 1.0 mg/mL G418.
To evaluate compound efficacy, titrated compounds were transferred to sterile 384-well tissue culture treated plates, and the plates were seeded with HCV replicon cells (50 μL at a density of 2.4×10^3 cells/well) in DMEM containing 4% FBS (final DMSO concentration at 0.5%). After 3 days incubation at 37° C., cells were analyzed for Renilla Luciferase activity using the EnduRen substrate (Promega cat #E6485) according to the manufacturer's directions. Briefly, the EnduRen substrate was diluted in DMEM and then added to the plates to a final concentration of 7.5 μM. The plates were incubated for at least 1 h at 37° C. then read on a Viewlux Imager (PerkinElmer) using a luminescence program. The 50% effective concentration (EC50) was calculated using the four-parameter logistic formula noted above.

Row | Compound | EC50 (class symbol) [µM] | EC50 (numeric value) [µM]
1 | CNC(=O)c1c(-c2ccc(F)cc2)oc2c1cc(-c1cccc(C(=O)O)c1)c1[nH]ccc12 [Compound 3001, 3-(2-(4-fluorophenyl)-3-(methylcarbamoyl)-6H-furo[2,3-e]indol-5-yl)benzoic acid] | > 1 | –
2 | CNC(=O)c1c(-c2ccc(F)cc2)oc2c1cc(-c1cccc(C(=O)NC34CC(C3)C4)c1)c1[nH]ccc12 [Compound 4002] | < 0.1 | –
3 | CNC(=O)c1c(-c2ccc(F)cc2)oc2c1cc(-c1cccc(C(=O)NC3(C(=O)OC)CCC3)c1)c1[nH]ccc12 [Compound 4012] | 0.1 to 1 | –
4 | CNC(=O)c1c(-c2ccc(F)cc2)oc2c1cc(-c1cccc(C(=O)O)c1)c1c2ccn1C(=O)C(F)(F)F [Compound 3002, 3-(2-(4-fluorophenyl)-3-(methylcarbamoyl)-6-(2,2,2-trifluoroacetyl)-6H-furo[2,3-e]indol-5-yl)benzoic acid] | > 1 | –
5 | CNC(=O)c1c(-c2ccc(F)cc2)oc2c1cc(-c1cccc(C(=O)NC(C)(C)C)c1)c1c2cc(-c2ccccc2)n1S(C)(=O)=O [Compound 5004] | 0.1 to 1 | –
6 | CNC(=O)c1c(-c2ccc(F)cc2)oc2c1cc(OC(C)C)c1c2ccn1S(C)(=O)=O [Compound 5001, 2-(4-fluorophenyl)-5-isopropoxy-N-methyl-6-(methylsulfonyl)-6H-furo[2,3-e]indole-3-carboxamide] | > 1 | –
7 | CNC(=O)c1c(-c2ccc(F)cc2)oc2c1cc(-c1cccc(C(=O)NC(C)(C)C)c1)c1[nH]c(-c3ccccc3)cc12 [Compound 1007] | 0.1 to 1 | –
8 | CNC(=O)c1c(-c2ccc(F)cc2)oc2c1cc(-c1cccc(C(=O)NC(C)(C)c3ccc(Cl)cc3)c1)c1c2ccn1S(C)(=O)=O [Compound 5006] | < 0.1 | –
9 | C#CC1(NC(=O)c2cccc(-c3cc4c(C(=O)NC)c(-c5ccc(F)cc5)oc4c4cc[nH]c34)c2)CCCCC1 [Compound 4017] | 0.1 to 1 | –
10 | CNC(=O)c1c(-c2ccc(F)cc2)oc2c1cc(-c1cccc(C(=O)NC(C)(C)CCO)c1)c1[nH]ccc12 [Compound 4003] | < 0.1 | –
11 | CCc1c[nH]c2c(OC(C)C)cc3c(C(=O)NC)c(-c4ccc(F)cc4)oc3c12 [Compound 6003] | > 1 | –
12 | CNC(=O)c1c(-c2ccc(F)cc2)oc2c1cc(-c1cccc(C(=O)OC)c1)c1[nH]ccc12 [Compound 1003] | > 1 | 1.46
13 | CNC(=O)c1c(-c2ccc(F)cc2)oc2c1cc(-c1cccc(C(=O)NC(C)(C)C)c1)c1[nH]ccc12 [Compound 1005, 5-(3-(tert-butylcarbamoyl)phenyl)-2-(4-fluorophenyl)-N-methyl-6H-furo[2,3-e]indole-3-carboxamide] | < 0.1 | 0.05
14 | CNC(=O)c1c(-c2ccc(F)cc2)oc2c1cc(OC(C)C)c1[nH]cc(C(=O)C(=O)O)c12 [Compound 2002] | > 1 | –
15 | CNC(=O)c1c(-c2ccc(F)cc2)oc2c1cc(-c1cccc(C(=O)NC(C)(C)c3ccc(Cl)cc3)c1)c1[nH]ccc12 [Compound 4010] | < 0.1 | 0.027
16 | CNC(=O)c1c(-c2ccc(F)cc2)oc2c1cc(-c1ccc(OC)c(C(=O)NCC(F)(F)C(F)(F)C(F)(F)F)c1)c1[nH]ccc12 [Compound 1009] | < 0.1 | –
17 | CNC(=O)c1c(-c2ccc(F)cc2)oc2c1cc(-c1cccc(C(=O)NCC(C)(F)F)c1)c1[nH]ccc12 [Compound 4005] | 0.1 to 1 | 0.15
18 | CNC(=O)c1c(-c2ccc(F)cc2)oc2c1cc(-c1cccc(C(=O)NC(C)(C)C)c1)c1c2ccn1C(=O)C(F)(F)F [Compound 3003] | 0.1 to 1 | 0.2
19 | CNC(=O)c1c(-c2ccc(F)cc2)oc2c1cc(OC(C)C)c1c2ccn1CC(F)F [Compound 6001] | > 1 | –
20 | CNC(=O)c1c(-c2ccc(F)cc2)oc2c1cc(-c1cccc(C(=O)NC(C)(C)C#N)c1)c1[nH]ccc12 [Compound 4022] | < 0.1 | 0.015
21 | C#CC(CC)(CC)NC(=O)c1cccc(-c2cc3c(C(=O)NC)c(-c4ccc(F)cc4)oc3c3cc[nH]c23)c1 [Compound 4018] | < 0.1 | –
22 | CNC(=O)c1c(-c2ccc(F)cc2)oc2c1cc(-c1cccc(C(=O)NC(C)(C)C)c1)c1c2c(C)cn1S(C)(=O)=O [Compound 5003] | > 1 | –
23 | C#CC(C)NC(=O)c1cccc(-c2cc3c(C(=O)NC)c(-c4ccc(F)cc4)oc3c3cc[nH]c23)c1 (stereo not shown) [Compound 4021] | 0.1 to 1 | –
24 | CNC(=O)c1c(-c2ccc(F)cc2)oc2c1cc(-c1cccc(C(=O)NC(C)(C)C)c1)c1[nH]c(C)cc12 [Compound 1008] | 0.1 to 1 | –

Row | Compound | EC50 (class symbol) [µM] | EC50 (numeric value) [µM]
25 | C#CC(C)(C)NC(=O)c1cccc(-c2cc3c(C(=O)NC)c(-c4ccc(F)cc4)oc3c3cc[nH]c23)c1 [Compound 4013] | < 0.1 | –
26 | CNC(=O)c1c(-c2ccc(F)cc2)oc2c1cc(-c1cccc(C(=O)NCC(C)(C)CO)c1)c1[nH]ccc12 [Compound 4008] | 0.1 to 1 | 0.13
27 | CNC(=O)C(=O)c1c[nH]c2c(-c3cccc(C(=O)NC(C)(C)C)c3)cc3c(C(=O)NC)c(-c4ccc(F)cc4)oc3c12 [Compound 2005] | > 1 | 5.16
28 | CCn1ccc2c3oc(-c4ccc(F)cc4)c(C(=O)NC)c3cc(OC(C)C)c21 [Compound 6002] | > 1 | –
29 | CNC(=O)c1c(-c2ccc(F)cc2)oc2c1cc(-c1cccc(C(=O)NC(C)(C)C)c1)c1[nH]cc(C(=O)C(=O)OC)c12 [Compound 2003, methyl 2-(5-(3-(tert-butylcarbamoyl)phenyl)-2-(4-fluorophenyl)-3-(methylcarbamoyl)-6H-furo[2,3-e]indol-8-yl)-2-oxoacetate] | 0.1 to 1 | 0.44
30 | CCc1cn(CC)c2c(OC(C)C)cc3c(C(=O)NC)c(-c4ccc(F)cc4)oc3c12 [Compound 6005] | > 1 | –
31 | CNC(=O)c1c(-c2ccc(F)cc2)oc2c1cc(-c1cccc(C(=O)NC(C)(C)C)c1)c1c2cc(C)n1S(C)(=O)=O [Compound 5005] | > 1 | –
32 | CCN(CC(C)(C)C)C(=O)c1cccc(-c2cc3c(C(=O)NC)c(-c4ccc(F)cc4)oc3c3ccn(CC)c23)c1 [Compound 6007] | 0.1 to 1 | –
33 | CNC(=O)c1c(-c2ccc(F)cc2)oc2c1cc(-c1cccc(C(=O)NCC(C)(C)c3ccc(Cl)cc3)c1)c1[nH]ccc12 [Compound 4009, 5-(3-((2-(4-chlorophenyl)-2-methylpropyl)carbamoyl)phenyl)-2-(4-fluorophenyl)-N-methyl-6H-furo[2,3-e]indole-3-carboxamide] | 0.1 to 1 | –
34 | CNC(=O)c1c(-c2ccc(F)cc2)oc2c1cc(OC(C)C)c1[nH]ccc12 [Compound 1002, 2-(4-fluorophenyl)-5-isopropoxy-N-methyl-6H-furo[2,3-e]indole-3-carboxamide] | > 1 | –
35 | CNC(=O)C(=O)c1c[nH]c2c(OC(C)C)cc3c(C(=O)NC)c(-c4ccc(F)cc4)oc3c12 [Compound 2001] | > 1 | –
36 | CNC(=O)c1c(-c2ccc(F)cc2)oc2c1cc(-c1cccc(C(=O)NCC(C)(C)c3ccccc3)c1)c1[nH]ccc12 [Compound 4016] | 0.1 to 1 | –
37 | CNC(=O)c1c(-c2ccc(F)cc2)oc2c1cc(-c1cccc(C(=O)NCC(F)(F)c3ccccn3)c1)c1[nH]ccc12 [Compound 4020] | 0.1 to 1 | –
38 | CNC(=O)c1c(-c2ccc(F)cc2)oc2c1cc(-c1cccc(C(=O)NC(C)(C)C)c1)c1[nH]cc(C(=O)C(=O)O)c12 [Compound 2004, 2-(5-(3-(tert-butylcarbamoyl)phenyl)-2-(4-fluorophenyl)-3-(methylcarbamoyl)-6H-furo[2,3-e]indol-8-yl)-2-oxoacetic acid] | > 1 | –
39 | CNC(=O)c1c(-c2ccc(F)cc2)oc2c1cc(-c1cccc(C(=O)NCC(F)(F)C(F)(F)C(F)(F)F)c1)c1[nH]ccc12 [Compound 4007] | < 0.1 | 0.049
40 | CNC(=O)c1c(-c2ccc(F)cc2)oc2c1cc(-c1cccc(C(=O)OC(C)(C)C)c1)c1[nH]ccc12 [Compound 1004, tert-butyl 3-(2-(4-fluorophenyl)-3-(methylcarbamoyl)-6H-furo[2,3-e]indol-5-yl)benzoate] | 0.1 to 1 | –
41 | CNC(=O)c1c(-c2ccc(F)cc2)oc2c1cc(-c1cccc(C(=O)NC(C)(C)C)c1)c1c2ccn1S(C)(=O)=O [Compound 5002] | < 0.1 | –
42 | CCN(C)C(=O)c1c(-c2ccc(F)cc2)oc2c1cc(OC(C)C)c1c2ccn1CC [Compound 6004] | > 1 | –
43 | CCOC(=O)c1c(-c2ccc(F)cc2)oc2c1cc(OC(C)C)c1[nH]ccc12 [Compound 1001, ethyl 2-(4-fluorophenyl)-5-isopropoxy-6H-furo[2,3-e]indole-3-carboxylate] | > 1 | –
44 | CNC(=O)c1c(-c2ccc(F)cc2)oc2c1cc(-c1cccc(C(=O)NC3(c4ncccn4)CC3)c1)c1[nH]ccc12 [Compound 4006] | < 0.1 | –
45 | CNC(=O)c1c(-c2ccc(F)cc2)oc2c1cc(-c1cccc(C(=O)NC(C)(C)C)c1)c1[nH]cc(C(=O)C(=O)N(C)C)c12 [Compound 2006] | > 1 | –
46 | CNC(=O)c1c(-c2ccc(F)cc2)oc2c1cc(-c1cccc(C(=O)NC(C)(C)C)c1)c1[nH]cc(C)c12 [Compound 1006] | 0.1 to 1 | 0.51
47 | C#CC(C)(CC)NC(=O)c1cccc(-c2cc3c(C(=O)NC)c(-c4ccc(F)cc4)oc3c3cc[nH]c23)c1 (stereo not shown) [Compound 4019] | 0.1 to 1 | –
